Data published in paper PMC8022858, “Discovery of bone morphogenetic protein 7-derived peptide sequences that attenuate the human osteoarthritic chondrocyte phenotype” (Molecular Therapy. Methods & Clinical Development, 2021).

How the values were obtained:
OA-HAC pool = assay: Alanine scanning of peptide p[63-82], gene expression and bioactivity score; format: cell-based, human; details: pool of 18 OA-HACs, 100 nM; for impact of alanine substitution on peptide p[63-82] bioactivity (bioactivity score): 24 h, score = sum of fold change of COL10A1, ALPL, MMP13, COL2A1, NKX3-2 versus wild-type (Figure 5C)
Method: Figure 5 Molecular characterization of peptides p[63−82] and p[113−132] (A) A pool of OA-HACs (n = 4 donors) was transfected with a scrambled siRNA or with an NKX3-2 siRNA (100 nM siRNA) and cultured for 24 h. Cultures were then exposed to peptide p[63−82] or p[113−132] (100 nM peptide). Samples were harvested 24 h later and analyzed for the expression of the indicated mRNAs (normalized to 28S rRNA). (B) SW1353 chondrocytic cells were transfected with BRE (SMAD1/5/8 reporter) or CAGA12 (SMAD2/3 reporter) firefly luciferase-reporter plasmids. A CMV-Gaussia plasmid was cotransfected as a transfection control. Cells were then cultured for 24 h and subsequently exposed to control, p[63−82], or p[113−132] for 8 h. Firefly and Gaussia bioluminescence were measured in cells and medium (respectively), and relative light units (RLUs) of firefly luciferase were normalized for the Gaussia luciferase signal. The normalized firefly luciferase signal of the control condition was set at 1, and peptide conditions were calculated relative to the control condition (FL/GL). Error bars represent mean ± SEM; statistical significance for peptide conditions versus siScrambled or siNKX3-2 (A) or control condition (B) as determined by unpaired two-tailed Student’s t test is represented as ∗p < 0.05, ∗∗p < 0.01, and ∗∗∗p < 0.001. (C) An alanine scanning library of peptide p[63−82] was synthesized, and the pool of 18 OA-HACs originally used for the full library scanning (Figure 1) was exposed to individual peptides from the alanine scanning library (100 nM peptide) for 24 h. An alanine-scanning bioactivity score (sum of the fold change gene expression of COL10A1, ALPL, MMP13, and COL2A1 plus NKX3-2 of the alanine-substituted peptides versus the wild-type p[63−82] peptide) was calculated for each alanine substitution in the amino acid sequence of peptide p[63−82] and is represented by the height of each letter on the y axis (data in Figure S4). (D) Multiple sequence alignment of the human BMP7 p[63−82] peptide with the homologous region in BMP7 of other species.
We aimed to further understand the sequence dependency of the peptide bioactivity. Peptide p[63−82] was derived from the central region within BMP7, and since this yielded a limited series of bioactive peptides (Figures 1B and S2), we further focused our analyses on peptide p[63−82]. To determine which amino acids are important for the bioactivity of peptide p[63−82], an alanine-scanning peptide library was synthesized, based on systematic alanine substitution of consecutive amino acids in the peptide p[63−82] sequence (Table S1). This alanine-scanning library was then screened by exposing an OA-HAC pool (the same pool that was used for the full library scanning in Figure 1) for 24 h to 100 nM of each peptide in the alanine-scanning library. The bioactivity of each peptide was determined by measuring gene expression of COL10A1, ALPL, MMP13, COL2A1, and NKX3-2 (Figure S4). Changes in the bioactivity of the alanine-scanning library peptides were combined into a “bioactivity score” of each individual substituted amino acid in the parental p[63−82] peptide (Figure 5C). […] The region in BMP7 from which peptide p[63−82] was derived and the G7 position in it are evolutionary highly conserved, as determined by sequence alignment of BMP7 sequences from various animal species (Figure 5D).
For the peptide-screening and alanine-scanning experiments, cDNA was prepared using the Cells-to-Ct kit (Invitrogen) according to the manufacturer’s protocol. For the other experiments, cells or homogenized tissues (Mikro-Dismembrator; Braun Biotech International) were lysed in TRIzol (Life Technologies) and RNA isolation and cDNA synthesis were performed as described earlier.[27]^,[57] Quantitative real-time PCR was performed using Takyon qPCR Master Mix plus blue for SYBR Green (Eurogentec). […]

[1] = test system: primary human OA articular chondrocytes (OA-HACs); assay: BMP7 peptide library screening, quantitative real-time PCR of OA chondrocyte phenotype genes; format: cell-based; details: pool of 18 OA-HAC donors, scrambled peptides 100 nM, 24 h (Figure 2G)
From the text: To investigate whether BMP7 harbors potential peptide sequences that improve the OA chondrocyte phenotype, a peptide library was designed from the mature 139 amino acid-long human BMP7 sequence (Table S2). The peptide library was designed as 20-mer peptides with 2 amino acid intervals (18 amino acid overlap) between individual peptides and with all cysteine residues substituted by serine residues to avoid uncontrolled oxidation of cysteine groups. This yielded 61 individual peptides covering the complete mature human BMP7 sequence (Figure 1A). The peptide library was screened using a pool of primary human OA articular chondrocytes (OA-HACs) from 18 individual donors. Prior to pooling, individual OA-HAC isolates were tested for their responsiveness to BMP7 (Figure S1). The screening was conducted by exposing the OA-HAC pool for 24 h to a concentration series (1, 10, 100, or 1,000 nM) of each peptide from the library. […] This is defined as reduced expression of collagen type X alpha 1 chain (COL10A1), alkaline phosphatase (ALPL), Runt-related transcription factor 2 (RUNX2), ADAMTS5, MMP13, prostaglandin-endoperoxide synthase 2 or cyclooxygenase-2 (COX-2), and interleukin 6 (IL6) and increased expression of SRY-box transcription factor 9 (SOX9), COL2A1, and NKX3-2. […] Representative peptides inducing the above gene expression characteristics in OA-HACs were selected from both regions for further investigation. These were peptide p[63−82] and p[113−132] from the library, covering amino acids 63−82 and 113−132 of the mature BMP7 amino acid sequence. The complete quantitative real-time PCR data for peptides p[63−82] and p[113−132] […] For the two candidate peptides, we validated data using an independent cohort of three OA-HACs exposed to 100 nM of p[63−82] or p[113−132] or a combination of both peptides. […] Taken together, two regions in BMP7 were identified delivering peptide sequences that are able to improve the OA chondrocyte phenotype.
Figure 1 BMP7 peptide library screening on primary human OA articular chondrocytes (OA-HACs) (A) Schematic representation of the design of the human BMP7 peptide library. (B) COL10A1 mRNA expression in samples from the library screening on a pool of 18 OA-HACs individually exposed for 24 h to the peptides (100 nM) in the library. Data are shown as compared to the control condition (white bar) and full-length BMP7 (1 nM; gray bar). The two blue bars represent candidate peptides p[63−82] and p[113−132]. […] Error bars represent mean ± SEM, and statistical significance for peptide condition or BMP7 versus control condition as determined by unpaired two-tailed Student’s t test is represented as ∗p < 0.05, ∗∗p < 0.01, and ∗∗∗p < 0.001; NS, not significant.
Figure 2 Bioactivity of BMP7-derived peptides p[63−82] and p[113−132] on OA-HACs Complete peptide library screening quantitative real-time PCR dataset for peptides p[63−82] and p[113−132] is presented. (A) SOX9, COL2A1, and NKX3-2 mRNA expression in the 18 OA-HAC pool exposed to 1,000, 100, 10, or 1 nM of peptide p[63−82] and p[113−132] is shown and presented relative to control (black bars) and alongside full-length BMP7 (white bars). (B) Similar to (A) but for chondrocyte hypertrophy-associated genes RUNX2, COL10A1, and ALPL. (C) Similar to (A) but for cartilage extracellular matrix remodeling-associated genes MMP13 and ADAMTS5 and inflammation-related genes COX-2 and IL-6. (D) Glycosaminoglycan (GAG) content (normalized to total protein content) on an independent cohort of three individual OA-HAC donors treated with 100 nM peptides p[63−82] and p[113−132] for 24 h. (E) Alkaline phosphatase (ALP) activity (normalized to total protein content) in similar samples from (D). (F) Prostaglandin E2 (PGE2) levels in culture supernatant in similar samples from (D). […]

Row | Substance | impact of alanine substitution on peptide p[63-82] bioactivity (bioactivity score) (OA-HAC pool) | other results
1 | H-AAYYSEGESAFPLNSYANAT-OH [M17A, alanine-scanning peptide of p[63−82], substitution position 17] | important impact | 
2 | H-VYISNVDDYSNKFLLKVRSM-OH [scrambled p[113−132], scrambled version of peptide p[113−132], reference compound] |  | sequence specificity: expression of COL2A1, RUNX2, COL10A1, and COX-2 [1]: neither one of them was able to recapitulate the bioactivity
3 | H-AAYYSEGESAAPLNSYMNAT-OH [F11A, alanine-scanning peptide of p[63−82], substitution position 11] | important impact | 
4 | H-AAYYSEGESAFPLNSAMNAT-OH [Y16A, alanine-scanning peptide of p[63−82], substitution position 16] | important impact | 
5 | H-AAYYSEAESAFPLNSYMNAT-OH [G7A, alanine-scanning peptide of p[63−82], substitution position 07] | important impact | response on chondrocyte hypertrophy (OA-HAC pool; 24 h (Figure S4)): reciprocal response; impact on the chondrocyte phenotype-modulating action of the peptide (OA-HAC pool; 24 h (Figures 5C, S4)): largest impact
6 | H-AAAYSEGESAFPLNSYMNAT-OH [Y3A, alanine-scanning peptide of p[63−82], substitution position 03] | important impact | 
7 | H-AAYYSEGASAFPLNSYMNAT-OH [E8A, alanine-scanning peptide of p[63−82], substitution position 08] | important impact | 
